This note sets out measurements from patent publication US10336710B2, “Benzimidazole derivatives, preparation method therefor, and applications thereof” (BEIJING PHARMACEUTICAL GROUP CO., LTD., priority 2015, dated 2019).

In one test the test system is hyperuricemia rat models. Nature of the test: Therapeutic effect on potassium oxonate-induced hyperuricemia rat models (blood uric acid). The format is in vivo, SD rats. The note with it: for Blood uric acid concentration before drug administration: baseline, rat serum; for Blood uric acid concentration before drug administration / Blood uric acid concentration 7 days after drug administration: mean ± SD; for Blood uric acid concentration 7 days after drug administration: potassium oxonate 250 mg/kg/d i.p.; for Blood uric acid increase: 7 days vs before drug administration; for Effect on increment of blood uric acid levels compared with model control group (in words): 80 mg/kg/day and 40 mg/kg/day, potassium oxonate rat model. As for the experimental part: Experimental animals: SD rats (SPF level), Laboratory Animal Center, Chinese Academy of Military Medical Sciences.
Rats weighing 200±20 g were fasted for 12 hours after a 1-week adaptive feeding period and were intraperitoneally injected with potassium oxonate (250 mg/kg/d) once daily for 7 consecutive days for modeling. The rats were closely observed after injection. […]
Blood samples were collected from the retro-orbital venous plexus before the preparation of the rat models and after administering the test compounds for 7 days. Serum was separated from the blood samples. Urine was collected using a metabolic cage for 24 hours and the supernatant was collected after centrifuge. Blood uric acid levels were measured using an automatic biochemical analyzer. The average increment in blood uric acid concentration was calculated for each group of animals.
SPSS 13.0 statistical software package was used to analyze the data. The data in each group were expressed as mean plus or minus standard deviation (x±s). The data were compared using a comparative t-test between groups, where p<0.05 was considered as statistically significant.

For another test, the target named is human URAT1 (Homo sapiens (Human), UniProt Q96S37). Nature of the test: 14C-uric acid uptake inhibition in URAT1 high-expression 293/hURAT1 cells. The test is classed as cell-based. The note with it: 50 μM 14C-uric acid, 5 minutes at 37° C., read-out: URAT1 IC50 activity classification. The procedure:
The transfected cells were assayed for ability to uptake uric acid labelled with radioisotope. The test compounds were then evaluated for their activity by determining of their ability to block uric acid uptake by the transfected cells.
293/h URAT1 cells were plated at a density of 40000 cells/well in poly D-lysine-coated 96-well plates (BD, 356461) and incubated overnight. The medium was removed and a pre-warmed reaction buffer was added (125 mM sodium gluconate, 4.8 mM potassium gluconate, 1.3 mM calcium gluconate, 1.2 mM potassium dihydrogen phosphate, 1.2 mM magnesium sulfate, 5.6 mM glucose, 25 mM HEPES, pH 7.4) before incubating at 37° C. for 10 minutes. The buffer was removed and another reaction buffer containing 50 μM ^14C-uric acid (American Radiolabeled Chemicals, ARC0513) and the test compounds or solvent control was added before incubating at 37° C. for 5 minutes. The buffer was removed, and the plates were washed 3 times with the buffer. Cells were lysed by adding 100 mM NaOH for 20 minutes. Cell lysates were transferred to Isoplate-96 well plates (PerkinElmer, 6005040), mixed with liquid scintillators and were counted in a MicroBeta^2 (PerkinElmer) counter.
The test compounds were all dissolved in DMSO, and DMSO of the same concentration without the test compounds was used as a solvent control. […] The IC50 of each compound was calculated using the percentage of inhibition at different concentrations.

[1] abbreviates: 40 mg/kg/d intragastric once daily for 7 days.
Setting [2] is: 80 mg/kg/d intragastric once daily for 7 days.

human URAT1, sequence (Q96S37 whole entry): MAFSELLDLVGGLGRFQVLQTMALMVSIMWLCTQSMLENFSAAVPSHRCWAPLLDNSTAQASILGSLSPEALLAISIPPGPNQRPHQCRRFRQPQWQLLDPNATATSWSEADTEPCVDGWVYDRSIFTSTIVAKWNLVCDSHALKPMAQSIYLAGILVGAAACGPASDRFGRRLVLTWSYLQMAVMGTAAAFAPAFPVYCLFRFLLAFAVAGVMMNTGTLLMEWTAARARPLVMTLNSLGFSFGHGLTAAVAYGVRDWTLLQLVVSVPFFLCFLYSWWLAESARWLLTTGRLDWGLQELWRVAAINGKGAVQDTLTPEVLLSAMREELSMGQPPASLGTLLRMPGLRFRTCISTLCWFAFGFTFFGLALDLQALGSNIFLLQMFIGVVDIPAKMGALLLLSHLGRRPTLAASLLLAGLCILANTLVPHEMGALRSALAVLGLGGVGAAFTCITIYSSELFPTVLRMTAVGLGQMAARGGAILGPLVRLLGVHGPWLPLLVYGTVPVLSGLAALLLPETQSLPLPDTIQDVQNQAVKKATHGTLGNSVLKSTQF

As to `COc1ccc2c(c1)nc(SC(C)(C)C(=O)O)n2-c1ccc(C#N)c2ccccc12` [Example I1, 2-methyl-2-[[5-methoxy-1-(4-cyanonaphth-1-yl)-1H-benzo[d]imidazol-2-yl]thio]propanoic acid], the “Blood uric acid concentration before drug administration” value stood at 169.61 ± 19.57 µmol/L with hyperuricemia rat models (40 mg/kg/d group) and 175.83 ± 16.39 µmol/L with hyperuricemia rat models (80 mg/kg/d group). Besides, the figures for the “Blood uric acid concentration 7 days after drug administration” value (“Blood uric acid concentration 7 days” for short) with hyperuricemia rat models (setting [1]) and in the test on hyperuricemia rat models (setting [2]) were 175.79 ± 16.54 µmol/L and 175.95 ± 15.43 µmol/L, respectively. The “Blood uric acid increase” value in the test with hyperuricemia rat models (40 mg/kg/d) amounted to 3.64%; with hyperuricemia rat models (80 mg/kg/d), 0.07%. In addition, the “Effect on increment of blood uric acid levels compared with model control group (in words)” value in the test on hyperuricemia rat models is “could significantly reduce the increment of blood uric acid levels”. The 50% inhibitory concentration (IC50) on human URAT1 was 1 to 15 µM.

As to `CC(C)(Sc1nc2ccccc2n1-c1ccc(C#N)c2ccccc12)C(=O)O` [Example I2, 2-methyl-2-[[1-(4-cyanonaphth-1-yl)-1H-benzo[d]imidazol-2-yl]thio]propanoic acid], the “Blood uric acid concentration before drug administration” value was determined as 156.38 ± 12.62 µmol/L in the test with hyperuricemia rat models (40 mg/kg/d group) and 150.86 ± 20.46 µmol/L with hyperuricemia rat models (80 mg/kg/d group). Moreover, the “Blood uric acid concentration 7 days” value in the test on hyperuricemia rat models (setting [1]) was found to be 172.86 ± 9.37 µmol/L; with hyperuricemia rat models (setting [2]) it was 161.81 ± 8.38 µmol/L. Also, the “Blood uric acid increase” value in the test on hyperuricemia rat models (40 mg/kg/d) worked out at 10.54%; with hyperuricemia rat models (80 mg/kg/d), 7.26%. Besides, in the test on hyperuricemia rat models, the “Effect on increment of blood uric acid levels compared with model control group (in words)” value was “could significantly reduce the increment of blood uric acid levels”. In addition, the IC50 on human URAT1 lay within 1 to 15 µM.

In the case of `CC(C)(Sc1nc2cc(Br)ccc2n1-c1ccc(C#N)c2ccccc12)C(=O)O` [Example I3, 2-methyl-2-[[5-bromo-1-(4-cyanonaphth-1-yl)-1H-benzo[d]imidazol-2-yl]thio]propanoic acid], the “Blood uric acid concentration before drug administration” value in the test on hyperuricemia rat models (40 mg/kg/d group) amounted to 169.21 ± 14.24 µmol/L; in the test on hyperuricemia rat models (80 mg/kg/d group), 181.25 ± 24.86 µmol/L. In addition, the entries for the “Blood uric acid concentration 7 days” value in the test with hyperuricemia rat models (setting [1]) and in the test with hyperuricemia rat models (setting [2]) were 180.38 ± 14.36 µmol/L and 159.40 ± 13.99 µmol/L, respectively. Moreover, the “Blood uric acid increase” value is given as 6.60% in the test with hyperuricemia rat models (40 mg/kg/d) and −12.06% in the test with hyperuricemia rat models (80 mg/kg/d). The “Effect on increment of blood uric acid levels compared with model control group (in words)” value in the test with hyperuricemia rat models is reported as “could significantly reduce the increment of blood uric acid levels”. For the same compound, on human URAT1, the IC50 lay within 1 to 15 µM.

Regarding `CC(C)(Sc1nc2ccccc2n1-c1ccc(C#N)cc1)C(=O)O` [Example I4, 2-methyl-2-[[1-(4-cyanophenyl)-1H-benzo[d]imidazol-2-yl]thio]propanoic acid], the figures for the “Blood uric acid concentration before drug administration” value in the test with hyperuricemia rat models (40 mg/kg/d group) and with hyperuricemia rat models (80 mg/kg/d group) were 142.57 ± 6.43 µmol/L and 158.38 ± 13.67 µmol/L, respectively. Further, the “Blood uric acid concentration 7 days” value in the test on hyperuricemia rat models (setting [1]) is 173.05 ± 17.24 µmol/L; with hyperuricemia rat models (setting [2]), 177.24 ± 5.77 µmol/L. In addition, the entries for the “Blood uric acid increase” value in the test with hyperuricemia rat models (40 mg/kg/d) and with hyperuricemia rat models (80 mg/kg/d) were 21.38% and 11.90%, respectively. Also, on human URAT1, the IC50 is 1 to 15 µM.

As to `CC(C)(Sc1nc2ccccc2n1-c1ccc(C2CC2)c2ccccc12)C(=O)O` [Example I5, 2-methyl-2-[[1-(4-cyclopropylnaphth-1-yl)-1H-benzo[d]imidazol-2-yl]thio]propanoic acid], at human URAT1, the concentration for half-maximal inhibition (IC50) lay within 15 to 30 µM.

Consider `O=C(O)C(Sc1nc2ccccc2n1-c1ccc(C2CC2)c2ccccc12)c1ccc(Cl)cc1` (stereo not drawn) [Example I6, 2-(4-chlorophenyl)-2-[[1-(4-cyclopropylnaphth-1-yl)-1H-benzo[d]imidazol-2-yl]thio]acetic acid], for which the IC50 at human URAT1 was in the range of 15 to 30 µM.

Take `CC(C)(Sc1nc2ccccc2n1-c1ccc([N+](=O)[O-])cc1F)C(=O)O` [Example I7, 2-methyl-2-[[1-(4-nitro-2-fluorophenyl)-1H-benzo[d]imidazol-2-yl]thio]propanoic acid]: at human URAT1, the IC50 lay in the range of 30 to 100 µM.

Take `CC(C)(Sc1nc2ccccc2n1-c1ccccc1)C(=O)O` [Example I8, 2-methyl-2-[(1-phenyl-1H-benzo[d]imidazol-2-yl)thio]propanoic acid]: the concentration for half-maximal inhibition (IC50) at human URAT1 fell in the range of 30 to 100 µM.

With `CC(C)(Sc1nc2ccccc2n1-c1ccc(Br)cc1F)C(=O)O` [Example I11, 2-methyl-2-[[1-(4-bromo-2-fluorophenyl)-1H-benzo[d]imidazol-2-yl]thio]propanoic acid], the IC50 on human URAT1 fell in the range of 15 to 30 µM.

Turning to `CC(C)(Sc1nc2ccccc2n1-c1ccc(Cl)cc1F)C(=O)O` [Example I12, 2-methyl-2-[[1-(4-chloro-2-fluorophenyl)-1H-benzo[d]imidazol-2-yl]thio]propanoic acid], the half-maximal inhibitory concentration (IC50) on human URAT1 is 15 to 30 µM.

Consider `CC(C)(Sc1nc2ccccc2n1-c1ccccc1F)C(=O)O` [Example I13, 2-methyl-2-[[1-(2-fluorophenyl)-1H-benzo[d]imidazol-2-yl]thio]propanoic acid], for which the half-maximal inhibitory concentration (IC50) on human URAT1 is 15 to 30 µM.

As to `O=C(O)CSc1nnc(Br)n1-c1ccc(C2CC2)c2ccccc12` [Lesinurad, reference compound], the “Blood uric acid concentration before drug administration” value was determined as 156.02 ± 8.69 µmol/L in the test with hyperuricemia rat models (40 mg/kg/d group) and 161.20 ± 22.07 µmol/L in the test on hyperuricemia rat models (80 mg/kg/d group). In addition, the “Blood uric acid concentration 7 days” value was 172.57 ± 25.43 µmol/L in the test on hyperuricemia rat models (setting [1]) and 166.85 ± 12.76 µmol/L in the test with hyperuricemia rat models (setting [2]). Further, the results for the “Blood uric acid increase” value with hyperuricemia rat models (40 mg/kg/d) and with hyperuricemia rat models (80 mg/kg/d) were 10.61% and 3.50%, respectively. Besides, the “Effect on increment of blood uric acid levels compared with model control group (in words)” value in the test with hyperuricemia rat models is given as “could reduce the increment of blood uric acid levels”.
